{"source": "patent EP1638538B1", "about": "“DOSAGE FORM” (priority 2003, dated 2005)", "assay": "Time for complete absorption of sunflower oil into compressed sporopollenin tablets with an absorption aiding liquid", "format": "physicochemical", "method": "Sporopollenin (0.5 g) tablets were prepared by compressing in a 16 mm die at a pressure of 10 tonnes for 2 min. […] The resulting powder was dried in a dessicator over P2O5 in oven at 50°C until constant weight.", "key": {"[1]": {"settings": "sunflower oil (1 ml) + liquid (1 ml), 0.5 g tablet, room temperature"}}, "data": [{"compound": "CC#N", "note": "[acetonitrile]", "values": [{"measurement": "Time for complete absorption", "setting": "[1]", "value": 20, "unit": "s"}]}, {"compound": "ClCCl", "note": "[dichloromethane]", "values": [{"measurement": "Time for complete absorption", "setting": "[1]", "value": 35, "unit": "s"}]}, {"compound": "CCO", "note": "[ethanol]", "values": [{"measurement": "Time for complete absorption", "setting": "[1]", "value": 20, "unit": "s"}, {"measurement": "Time for complete absorption", "setting": "sunflower oil, repeated at 40 °C", "value": 12, "unit": "s"}]}, {"compound": "CCOC(C)=O", "note": "[ethyl acetate]", "values": [{"measurement": "Time for complete absorption", "setting": "[1]", "value": 50, "unit": "s"}]}]}
